Assay results from patent publication US20240360139A1, “BLOOD BRAIN BARRIER PENETRATING SELECTIVE INHIBITORS OF ROCK2 PROTEIN KINASES AND USES THEREOF” (GENOSCO Inc., priority 2023, published 2024).

What was measured:
[1] = Blood-brain barrier penetration, brain-to-plasma ratio in rat; type: in vivo; conditions: Sprague-Dawley rat, IV 1 mg/kg, n=3
Protocol: (§1) The concentrations of compounds of (1) in blood and brain were measured from plasma and brain samples taken 0.25 and 2 hours after intravenous (IV) administration of the compounds of (1) at 1 mg/kg in CD-1 mouse and Sprague-Dawley rat (n=3). After euthanizing the mouse and rat, blood samples from cardiac puncture and brain tissue were collected. Plasma or brain homogenate was vortexed for 1 min. with internal standard in Methanol/Acetonitrile (1:1, v/v), and centrifuged at 4000-4500 rpm for 15 min. at room temperature to precipitate proteins. Subsequently, the supernatant was introduced into the LC/MS/MS system. An AB Sciex API 5500 mass spectrometer system (Sciex, USA) was used for quantitative analysis. The concentrations compounds of (1) in plasma and brain sample were determined using the standard calibration curve and brain-to-plasma concentration ratio was calculated.

[2] = Blood-brain barrier penetration, brain-to-plasma ratio in mouse; type: in vivo; conditions: CD-1 mouse, IV 1 mg/kg, n=3
Protocol: as §1

[3] = target: T1, Recombinant ROCK1 (amino acids 1-477) (Homo sapiens, UniProt Q13464); assay: ROCK inhibition assay, LANCE Ultra TR-FRET (ROCK1); type: biochemical; conditions: 1 mM of ATP
T1 construct: Recombinant ROCK1 (amino acids 1-477)
T1 sequence (Q13464 1-477): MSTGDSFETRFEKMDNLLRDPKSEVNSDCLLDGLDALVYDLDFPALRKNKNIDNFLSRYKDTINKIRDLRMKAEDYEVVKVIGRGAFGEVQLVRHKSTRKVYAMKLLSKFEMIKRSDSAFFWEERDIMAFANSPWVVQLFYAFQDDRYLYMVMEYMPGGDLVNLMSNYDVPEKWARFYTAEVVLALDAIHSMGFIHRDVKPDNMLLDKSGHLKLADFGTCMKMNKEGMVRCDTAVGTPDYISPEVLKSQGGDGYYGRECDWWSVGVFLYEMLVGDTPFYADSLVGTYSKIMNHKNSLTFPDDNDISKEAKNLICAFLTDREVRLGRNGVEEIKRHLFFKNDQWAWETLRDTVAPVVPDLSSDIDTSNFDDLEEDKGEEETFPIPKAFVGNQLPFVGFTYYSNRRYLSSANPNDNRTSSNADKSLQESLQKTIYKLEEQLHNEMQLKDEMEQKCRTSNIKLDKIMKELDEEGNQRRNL

[4] = target: T2, Recombinant ROCK2 (amino acids 5-554) (Homo sapiens, UniProt O75116); assay: ROCK inhibition assay, LANCE Ultra TR-FRET (ROCK2); type: biochemical; conditions: 1 mM of ATP
T2 construct: ROCK2 (amino acids 5-554)
T2 sequence (O75116 5-554): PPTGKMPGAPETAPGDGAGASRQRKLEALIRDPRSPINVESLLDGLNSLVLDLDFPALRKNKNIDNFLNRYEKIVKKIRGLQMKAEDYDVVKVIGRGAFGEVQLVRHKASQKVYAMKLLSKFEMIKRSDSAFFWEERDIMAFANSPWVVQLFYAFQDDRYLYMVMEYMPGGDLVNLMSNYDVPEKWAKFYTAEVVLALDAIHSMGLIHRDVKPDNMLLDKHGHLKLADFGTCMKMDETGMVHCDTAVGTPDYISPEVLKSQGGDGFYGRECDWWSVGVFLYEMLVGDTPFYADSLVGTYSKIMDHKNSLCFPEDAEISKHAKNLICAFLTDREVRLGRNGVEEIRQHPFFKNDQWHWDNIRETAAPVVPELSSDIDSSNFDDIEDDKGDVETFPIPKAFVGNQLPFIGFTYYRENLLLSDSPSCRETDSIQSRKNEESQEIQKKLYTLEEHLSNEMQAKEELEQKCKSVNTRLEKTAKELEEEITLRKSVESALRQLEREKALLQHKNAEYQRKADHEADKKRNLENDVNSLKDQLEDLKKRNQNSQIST

Compound	Kp at 0.25 h [1]	Kp at 2 h [1]	Kp at 0.25 h [2]	Kp at 2 h [2]	IC50 [3] [nM]	IC50 [4] [nM]
CN1CC[C@@H]1Cn1cc(C(=O)C2COc3ccc(Cl)cc3C2)c2ccc(-c3cn[nH]c3Cl)cc21 (stereo partly shown) [Compound 1-55]	0.4	0.59	0.67	0.8	> 501	< 20
CCN(CC)CCn1cc(C(=O)C2COc3ccc(OC)cc3C2)c2ccc(-c3cn[nH]c3Cl)cc21 (stereo not shown) [Compound 3-17]	1.05	0.98	0.73	0.92	> 501	21 to 200
CNCCn1cc(C(=O)C2COc3ccc(OC)cc3C2)c2ccc(-c3cn[nH]c3F)cc21 (stereo not shown) [Compound 3-24]	1.37	1.38	0.96	0.54	> 501	21 to 200
CN1CC[C@H]1Cn1nc(C(=O)C2COc3ccc(F)cc3C2)c2ccc(-c3c[nH]nc3F)cc21 (stereo partly shown) [Compound 5-56]	12.4	20.2	7.32	10.2	> 501	21 to 200
COc1ccc2c(c1)CC(C(=O)c1nn(CCN(C)C)c3cc(-c4c[nH]nc4OC)ccc13)CCO2 (stereo not shown) [Compound 5-64]					> 501	> 501
COc1ccc2c(c1)CC(C(=O)c1nn(CCN(C)C)c3cc(-c4c[nH]nc4Cl)ccc13)CCO2 (stereo not shown) [Compound 5-65]					> 501	> 501
